Legend:
Gaeumannomyces graminis = Gaeumannomyces graminis / liquid culture (take-all of cereals); assay type: cell-based; details: read-out: control of Gaeumannomyces graminis
[1] = test system: Magnaporthe grisea (Pyricularia oryzae); test: microbe, parasite or virus in culture; assay type: cell-based; details: 72 h, read-out: control of Magnaporthe grisea
[2] = test system: Glomerella lagenarium (Colletotrichum lagenarium); test: Glomerella lagenarium (Colletotrichum lagenarium) / liquid culture (anthracnose); assay type: cell-based; details: Colletotrichum orbiculare; read-out: control of Glomerella lagenarium
[3] = test system: Botryotinia fuckeliana (Botrytis cinerea); test: Botryotinia fuckeliana (Botrytis cinerea) / liquid culture (gray mould); assay type: cell-based; details: 72 h, read-out: control of Botryotinia fuckeliana
Fusarium culmorum [4] = test: microbe, parasite or virus in culture; assay type: cell-based; details: read-out: control of Fusarium culmorum
[5] = test system: Monographella nivalis (Microdochium nivale); test: Monographella nivalis (Microdochium nivale) / liquid culture (foot rot cereals); assay type: cell-based; details: 96 h, read-out: control of Monographella nivalis
Fusarium culmorum [6] = test: whole plant or invertebrate; assay type: in vivo; details: in Triticum aestivum, read-out: control of Fusarium culmorum

Compound	melting point [°C]	inhibition of growth at 200 ppm (Gaeumannomyces graminis) [%]	inhibition of growth at 200 ppm [1] [%]	inhibition of growth at 200 ppm [2] [%]	inhibition of growth at 200 ppm [3] [%]	inhibition of growth at 200 ppm (Fusarium culmorum [4]) [%]	inhibition of growth at 200 ppm [5] [%]	pest or weed control at 200 ppm (Fusarium culmorum [6]) [%]
CC(C)CC(C)(Cc1cccc(C#N)c1)NC(=O)c1cnc2c(F)cccc2c1 (stereo not shown) [Compound E-46, N-[1-[(3-cyanophenyl)methyl]-1,3-dimethyl-butyl]-8-fluoro-quinoline-3-carboxamide]	45 to 46	≥ 80	≥ 80	≥ 80	≥ 80	≥ 80		
CC(C)CC(C)(Cc1cccc(Br)c1)NC(=O)c1cnc2c(F)cccc2c1 (stereo not shown) [Compound E-45, N-[1-[(3-bromophenyl)methyl]-1,3-dimethyl-butyl]-8-fluoro-quinoline-3-carboxamide]	87 to 89	≥ 80	≥ 80	≥ 80	≥ 80	≥ 80	≥ 80	
CC(C)(C)C[C@@](C)(Cc1ccccc1)NC(=O)c1cnc2c(F)cccc2c1 [Compound F-18, N-[(1S)-1-benzyl-1,3,3-trimethyl-butyl]-8-fluoro-quinoline-3-carboxamide]		≥ 80		≥ 80	≥ 80	≥ 80	≥ 80	≥ 80
C=C(C)CC(Cc1ccccc1)(NC(=O)c1cnc2c(F)cccc2c1)C1CC1 (stereo not shown) [Compound E-53, N-(1-benzyl-1-cyclopropyl-3-methyl-but-3-enyl)-8-fluoro-quinoline-3-carboxamide]		≥ 80	≥ 80	≥ 80	≥ 80	≥ 80	≥ 80	
CCCC(C)(Cc1ccccc1)NC(=O)c1cnc2c(F)cccc2c1 (stereo not shown) [Compound E-42, N-(1-benzyl-1-methyl-butyl)-8-fluoro-quinoline-3-carboxamide]		≥ 80	≥ 80	≥ 80	≥ 80	≥ 80	≥ 80	≥ 80
CC(C)CC(C)(Cc1ccccc1)NC(=O)c1cnc2ccccc2c1 (stereo not shown) [Compound E-13, N-(1-benzyl-1,3-dimethyl-butyl)quinoline-3-carboxamide]		≥ 80		≥ 80	≥ 80	≥ 80	≥ 80	≥ 80
CC(C)(NC(=O)c1cnc2ccccc2c1)C(C)(C)c1ccccc1F [Compound E-1, N-[2-(2-fluorophenyl)-1,1,2-trimethyl-propyl]quinoline-3-carboxamide]		≥ 80		≥ 80	≥ 80	≥ 80	≥ 80	≥ 80
Cc1ccccc1CC(C)(CC(C)C)NC(=O)c1cnc2c(F)cccc2c1 (stereo not shown) [Compound E-23, N-[1,3-dimethyl-1-(o-tolylmethyl)butyl]-8-fluoro-quinoline-3-carboxamide]	125 to 126	≥ 80	≥ 80	≥ 80	≥ 80	≥ 80	≥ 80	≥ 80
CC(C)C[C@@H](Cc1ccccc1)NC(=O)c1cnc2c(F)cccc2c1 [Compound F-4, N-[(1S)-1-benzyl-3-methyl-butyl]-8-fluoro-quinoline-3-carboxamide]		≥ 80		≥ 80	≥ 80	≥ 80	≥ 80	≥ 80
C=CCC(C)(Cc1ccccc1)NC(=O)c1cnc2c(F)cccc2c1 (stereo not shown) [Compound E-38, N-(1-benzyl-1-methyl-but-3-enyl)-8-fluoro-quinoline-3-carboxamide]		≥ 80	≥ 80	≥ 80	≥ 80	≥ 80	≥ 80	≥ 80
CC(C)CC(C)(Cc1ccccc1)NC(=O)c1cnc2cc(F)ccc2c1 (stereo not shown) [Compound E-40, N-(1-benzyl-1,3-dimethyl-butyl)-7-fluoro-quinoline-3-carboxamide]	142 to 144	≥ 80	≥ 80	≥ 80	≥ 80	≥ 80		
O=C(NC(CCC(F)(F)F)Cc1ccccc1)c1cnc2c(Cl)cccc2c1 (stereo not shown) [Compound E-17, N-(1-benzyl-4,4,4-trifluoro-butyl)-8-chloro-quinoline-3-carboxamide]	163 to 167	≥ 80	≥ 80		≥ 80	≥ 80		≥ 80
Cc1cccc2cc(C(=O)NC(CCC(F)(F)F)Cc3ccccc3)cnc12 (stereo not shown) [Compound E-19, N-(1-benzyl-4,4,4-trifluoro-butyl)-8-methyl-quinoline-3-carboxamide]	158 to 161	≥ 80	≥ 80		≥ 80	≥ 80		≥ 80
C=CCC(C)(Cc1ccccc1)NC(=O)c1cnc2ccccc2c1 (stereo not shown) [Compound E-37, N-(1-benzyl-1-methyl-but-3-enyl)quinoline-3-carboxamide]		≥ 80	≥ 80	≥ 80	≥ 80	≥ 80	≥ 80	
CC(C)C[C@](C)(Cc1ccccc1)NC(=O)c1cnc2ccccc2c1 [Compound F-5, N-[(1R)-1-benzyl-1,3-dimethyl-butyl]quinoline-3-carboxamide]		≥ 80		≥ 80	≥ 80	≥ 80	≥ 80	≥ 80
CCCC(C)(Cc1ccccc1)NC(=O)c1cnc2ccccc2c1 (stereo not shown) [Compound E-43, N-(1-benzyl-1-methyl-butyl)quinoline-3-carboxamide]		≥ 80	≥ 80	≥ 80	≥ 80	≥ 80	≥ 80	≥ 80
CC(C)CC(C)(Cc1cccc(Cl)c1)NC(=O)c1cnc2c(F)cccc2c1 (stereo not shown) [Compound E-27, N-[1-[(3-chlorophenyl)methyl]-1,3-dimethyl-butyl]-8-fluoro-quinoline-3-carboxamide]	41 to 42	≥ 80	≥ 80	≥ 80	≥ 80	≥ 80	≥ 80	

Reference: patent US10477864B2, “Microbiocidal quinoline (thio)carboxamide derivatives” (priority 2016, dated 2019)
